In patent publication US12187719B2, “Proteolysis targeting chimera (PROTACS) as degraders of SMARCA2 and /or SMARCA4” (Boehringer Ingelheim International GmbH, priority 2018, dated 2025) one finds DC50 and Dmax data, which are given here for 15 compounds.

In test [1] the target is T1, SMARCA4 (Homo sapiens, UniProt P51532).
T1 construct: endogenous in cells; host or cells: A549 (NSCLC) cells with SMARCA4 mutation corrected to wild type
The test can be described thus: Protein degradation assay in A549 cells, SMARCA4 levels by WES capillary electrophoresis. Conditions: A549 (NSCLC) cells with SMARCA4 mutation corrected to wild type, 18 h incubation; for DC50: concentration at which half maximal degradation is achieved, normalised to GAPDH; for Dmax: maximal amount of degraded protein relative to initial levels. In kind it is cell-based. On the procedure: (§1) For the protein degradation assay, A549 (NSCLC) cells are used in which the inactivating SMARCA4 mutation has been corrected to wild type, such that the cells express both SMARCA2 and SMARCA4. 35000 cells in F12K Medium +10% FBS (100 μL/well) are seeded in a Greiner 96 well F-bottom plate and incubated at 37° C. overnight. Compounds are added from DMSO stock solution using ECHO Access™ workstation or HP D300 Digital Dispenser and cells are incubated at 37° C. for 18 h. Medium is removed, cells are washed with PBS, PBS is removed and 30 μL cold Lysis Buffer (1% Triton, 350 mM KCl, 10 mM Tris, Halt Phosphatase-Protease Inhibitors, 10 mM DTT, Benzonase 0.5 μL/mL) is added to each well. Cells are lysed for 20 min at 4° C. on a bioshake at 800 rpm before insoluble debris is pelleted by centrifugation for 20 min at 4000 rpm at 4° C. The supernatant is transferred to a fresh PCR plate. SMARCA2 levels are determined on a WES capillary electrophoresis instrument (Proteinsimple) using rabbit anti-SMARCA2 antibody (1:25, Sigma #HPA029981), SMARCA4 antibody (CellSignaling #49360, 1:25), PBRM1 antibody (Bethyl #A301-591A-M, 1:40) and anti-GAPDH antibody (1:100, Abcam #ab9485) for normalization.
The Dmax represents the efficiency of degradation and gives the maximal amount of degraded protein relative to initial levels.

Test [2] addresses T2, SMARCA2 (Homo sapiens, UniProt P51531).
T2 construct: such that the cells express both SMARCA2 and SMARCA4; endogenous in cells; host or cells: A549 (NSCLC) cells with SMARCA4 mutation corrected to wild type
The test can be described thus: Protein degradation assay in A549 cells, SMARCA2 levels by WES capillary electrophoresis. In kind it is cell-based. The note with it: A549 (NSCLC) cells with SMARCA4 mutation corrected to wild type, 18 h incubation; for DC50: concentration at which half maximal degradation is achieved, normalised to GAPDH; for Dmax: maximal amount of degraded protein relative to initial levels. On the procedure:
as §1
The compounds 1-1 to 1-18 according to the invention have been tested in the above described assay. The majority of the compounds show degradation of SMARCA2 and SMARCA4 protein in A549 cells with DC50 in the range of 10-1000 nM (i.e. compound concentration at which half maximal degradation is achieved). The Dmax represents the efficiency of degradation and gives the maximal amount of degraded protein relative to initial levels. The majority of the compounds reach degradation levels >80%.

T2 sequence (P51531 whole entry): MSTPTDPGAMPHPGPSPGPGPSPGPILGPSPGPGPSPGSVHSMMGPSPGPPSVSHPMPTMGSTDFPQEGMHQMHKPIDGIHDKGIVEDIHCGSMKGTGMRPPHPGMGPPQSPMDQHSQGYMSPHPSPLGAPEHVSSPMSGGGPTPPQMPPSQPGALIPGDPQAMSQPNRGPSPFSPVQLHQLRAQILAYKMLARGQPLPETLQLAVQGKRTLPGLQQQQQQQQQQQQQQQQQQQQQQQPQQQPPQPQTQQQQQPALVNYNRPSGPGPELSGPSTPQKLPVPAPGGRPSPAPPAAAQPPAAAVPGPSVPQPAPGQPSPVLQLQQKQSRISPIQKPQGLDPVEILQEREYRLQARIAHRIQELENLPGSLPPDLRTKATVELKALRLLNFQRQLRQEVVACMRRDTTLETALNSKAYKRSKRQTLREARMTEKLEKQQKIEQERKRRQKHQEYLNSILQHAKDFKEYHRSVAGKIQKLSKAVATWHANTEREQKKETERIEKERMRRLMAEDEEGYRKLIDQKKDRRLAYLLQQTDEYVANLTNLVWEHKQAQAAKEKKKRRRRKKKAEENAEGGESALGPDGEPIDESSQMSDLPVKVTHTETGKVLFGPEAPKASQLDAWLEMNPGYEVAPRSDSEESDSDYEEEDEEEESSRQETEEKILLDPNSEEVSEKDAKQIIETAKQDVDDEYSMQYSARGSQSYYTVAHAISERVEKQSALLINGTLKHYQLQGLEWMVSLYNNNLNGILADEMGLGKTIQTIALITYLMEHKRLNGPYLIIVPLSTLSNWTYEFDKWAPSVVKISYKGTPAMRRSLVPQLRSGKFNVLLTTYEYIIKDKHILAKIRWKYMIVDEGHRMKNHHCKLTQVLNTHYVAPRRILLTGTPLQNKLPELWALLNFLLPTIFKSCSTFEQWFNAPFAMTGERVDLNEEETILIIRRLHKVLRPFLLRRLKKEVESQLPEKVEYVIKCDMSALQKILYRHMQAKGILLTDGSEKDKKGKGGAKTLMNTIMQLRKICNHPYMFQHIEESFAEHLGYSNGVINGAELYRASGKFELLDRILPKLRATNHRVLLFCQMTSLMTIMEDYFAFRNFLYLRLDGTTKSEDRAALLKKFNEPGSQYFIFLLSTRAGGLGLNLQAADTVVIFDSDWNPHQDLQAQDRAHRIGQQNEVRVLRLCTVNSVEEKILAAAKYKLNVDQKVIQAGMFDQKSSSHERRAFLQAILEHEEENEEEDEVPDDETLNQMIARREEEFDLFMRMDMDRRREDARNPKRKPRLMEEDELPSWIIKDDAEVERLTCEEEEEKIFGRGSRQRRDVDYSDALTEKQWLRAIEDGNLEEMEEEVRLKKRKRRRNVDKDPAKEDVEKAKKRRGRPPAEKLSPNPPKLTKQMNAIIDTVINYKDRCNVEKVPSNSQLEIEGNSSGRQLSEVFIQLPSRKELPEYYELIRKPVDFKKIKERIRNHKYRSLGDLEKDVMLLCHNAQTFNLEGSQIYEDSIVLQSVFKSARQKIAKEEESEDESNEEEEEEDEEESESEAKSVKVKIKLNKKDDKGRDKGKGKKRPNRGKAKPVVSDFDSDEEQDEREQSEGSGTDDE
T1 sequence (P51532 whole entry): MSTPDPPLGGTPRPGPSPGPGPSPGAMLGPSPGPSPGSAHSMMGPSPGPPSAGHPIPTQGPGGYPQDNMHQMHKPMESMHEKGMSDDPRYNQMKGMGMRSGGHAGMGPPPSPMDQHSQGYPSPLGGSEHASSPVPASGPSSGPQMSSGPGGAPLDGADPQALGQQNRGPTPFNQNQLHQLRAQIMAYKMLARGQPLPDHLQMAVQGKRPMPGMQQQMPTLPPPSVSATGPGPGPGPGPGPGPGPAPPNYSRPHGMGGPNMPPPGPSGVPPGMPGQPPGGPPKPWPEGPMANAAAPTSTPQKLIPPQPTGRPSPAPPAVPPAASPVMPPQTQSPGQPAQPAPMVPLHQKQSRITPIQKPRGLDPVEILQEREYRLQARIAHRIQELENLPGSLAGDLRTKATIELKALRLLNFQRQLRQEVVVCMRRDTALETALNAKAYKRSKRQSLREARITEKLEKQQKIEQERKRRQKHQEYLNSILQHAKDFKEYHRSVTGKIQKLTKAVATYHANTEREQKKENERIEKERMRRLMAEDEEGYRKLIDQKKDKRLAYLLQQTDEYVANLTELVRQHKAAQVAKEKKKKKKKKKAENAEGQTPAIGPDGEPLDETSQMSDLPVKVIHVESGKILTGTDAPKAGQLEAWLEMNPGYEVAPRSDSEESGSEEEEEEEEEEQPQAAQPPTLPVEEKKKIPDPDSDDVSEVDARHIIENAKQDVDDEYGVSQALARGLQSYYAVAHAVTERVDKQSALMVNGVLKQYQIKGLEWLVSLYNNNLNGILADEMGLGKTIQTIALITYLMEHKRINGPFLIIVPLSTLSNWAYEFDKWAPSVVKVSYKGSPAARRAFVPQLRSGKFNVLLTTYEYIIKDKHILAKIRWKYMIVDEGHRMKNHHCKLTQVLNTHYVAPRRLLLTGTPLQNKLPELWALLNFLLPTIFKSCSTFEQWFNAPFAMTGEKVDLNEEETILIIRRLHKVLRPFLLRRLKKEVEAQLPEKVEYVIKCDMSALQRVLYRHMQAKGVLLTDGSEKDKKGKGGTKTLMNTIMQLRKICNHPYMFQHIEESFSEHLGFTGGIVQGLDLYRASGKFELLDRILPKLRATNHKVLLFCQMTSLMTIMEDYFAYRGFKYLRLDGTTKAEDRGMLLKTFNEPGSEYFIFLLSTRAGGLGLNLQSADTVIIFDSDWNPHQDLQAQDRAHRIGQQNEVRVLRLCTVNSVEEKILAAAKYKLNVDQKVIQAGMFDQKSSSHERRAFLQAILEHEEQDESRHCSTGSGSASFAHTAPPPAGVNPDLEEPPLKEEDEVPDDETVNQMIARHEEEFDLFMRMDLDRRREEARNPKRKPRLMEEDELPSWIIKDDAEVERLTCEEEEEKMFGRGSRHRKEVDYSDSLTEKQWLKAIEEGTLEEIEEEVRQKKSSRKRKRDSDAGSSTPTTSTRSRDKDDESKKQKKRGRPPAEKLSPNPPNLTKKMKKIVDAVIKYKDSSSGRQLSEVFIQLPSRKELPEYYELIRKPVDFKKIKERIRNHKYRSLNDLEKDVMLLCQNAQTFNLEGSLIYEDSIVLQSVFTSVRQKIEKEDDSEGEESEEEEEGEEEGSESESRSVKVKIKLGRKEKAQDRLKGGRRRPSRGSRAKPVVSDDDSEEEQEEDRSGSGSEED

Turning to `Cc1ncsc1-c1ccc(CNC(=O)[C@@H]2C[C@@H](O)CN2C(=O)[C@@H](NC(=O)C2(F)CC2)C(C)(C)C)c(OCc2ccc(CN3CCN(c4cc(-c5ccccc5O)nnc4N)CC3)cc2)c1` [Compound I-8], in test [1], the DC50 (usually the concentration at which degradation of the target reaches its halfway point) amounted to 168 nM and the Dmax (as a rule, the largest share of the target that was removed) is 59%. Moreover, in test [2], the DC50 came out at 56 nM and the Dmax was determined as 88%.

In test [1], `Cc1ncsc1-c1ccc(CNC(=O)[C@@H]2C[C@@H](O)CN2C(=O)[C@@H](NC(=O)C2(F)CC2)C(C)(C)C)c(OCCCCCCCN2CCN(c3cc(-c4ccccc4O)nnc3N)CC2)c1` [Compound I-1] came in with a DC50 of 1240 nM and a Dmax of 70%. In test [2], this compound displayed a DC50 of 450 nM and a Dmax of 45%.

In test [1], `Cc1ncsc1-c1ccc(CNC(=O)[C@@H]2C[C@@H](O)CN2C(=O)[C@@H](NC(=O)C2(F)CC2)C(C)(C)C)c(OCCCOCCN2CCN(c3cc(-c4ccccc4O)nnc3N)CC2)c1` [Compound I-3] registered a DC50 of 2040 nM and a Dmax of 100%.

In test [2], `Cc1ncsc1-c1ccc(CNC(=O)[C@@H]2C[C@@H](O)CN2C(=O)[C@@H](NC(=O)C2(F)CC2)C(C)(C)C)c(OCc2ccc(CCN3CCN(c4cc(-c5ccccc5O)nnc4N)CC3)cc2)c1` [Compound I-12] gave a 50% degradation concentration (DC50) of roughly 1000 nM and a Dmax of 40%.

Take `Cc1ncsc1-c1ccc(CNC(=O)[C@@H]2C[C@@H](O)CN2C(=O)[C@@H](NC(=O)C2(F)CC2)C(C)(C)C)c(OCCc2ccc(C(=O)N3CCN(c4cc(-c5ccccc5O)nnc4N)CC3)cc2)c1` [Compound I-18]: in test [1], the DC50 turned out to be 188 nM and the Dmax came out at 81%. Also, in test [2], half-maximal degradation (DC50) was put at 525 nM and the Dmax was 98%.

Turning to `Cc1ncsc1-c1ccc(CNC(=O)[C@@H]2C[C@@H](O)CN2C(=O)[C@@H](NC(=O)C2(F)CC2)C(C)(C)C)c(OCCCCOc2ccc(CN3CCN(c4cc(-c5ccccc5O)nnc4N)CC3)cc2)c1` [Compound I-9], the values for the DC50 in test [1] and in test [2] were 170 nM and 236 nM, respectively. For the same compound, the Dmax worked out at 83% in test [1] and 85% in test [2].

Take `Cc1ncsc1-c1ccc(CNC(=O)[C@@H]2C[C@@H](O)CN2C(=O)[C@@H](NC(=O)C2(F)CC2)C(C)(C)C)c(OCCc2cccc(CN3CCN(c4cc(-c5ccccc5O)nnc4N)CC3)c2)c1` [Compound I-13]: in test [1], the DC50 came to 634 nM and the Dmax came out at 97%. In test [2], this compound gave a DC50 of 189 nM and a Dmax of 88%.

Turning to `Cc1ncsc1-c1ccc(CNC(=O)[C@@H]2C[C@@H](O)CN2C(=O)[C@@H](NC(=O)C2(F)CC2)C(C)(C)C)c(OCCCCCCCOCCN2CCN(c3cc(-c4ccccc4O)nnc3N)CC2)c1` [Compound I-6], the DC50 was 219 nM in test [1] and 172 nM in test [2]. For the same compound, the Dmax in test [1] is 89%; in test [2], 83%.

In test [1], `Cc1ncsc1-c1ccc(CNC(=O)[C@@H]2C[C@@H](O)CN2C(=O)[C@@H](NC(=O)C2(F)CC2)C(C)(C)C)c(OCCCCOCCN2CCN(c3cc(-c4ccccc4O)nnc3N)CC2)c1` [Compound I-4] displayed a DC50 of 735 nM and a Dmax of 87%. Moreover, in test [2], half-maximal degradation (DC50) was put at 1000 nM and the Dmax amounted to 70%.

Compound `Cc1ncsc1-c1ccc(CNC(=O)[C@@H]2C[C@@H](O)CN2C(=O)[C@@H](NC(=O)C2(F)CC2)C(C)(C)C)c(OCCOCCOCCN2CCN(c3cc(-c4ccccc4O)nnc3N)CC2)c1` [Compound I-5] registered a Dmax in test [1] of 84%. In test [2], this compound yielded a DC50 of 2540 nM and a Dmax of 89%.

For `Cc1ncsc1-c1ccc(CNC(=O)[C@@H]2C[C@@H](O)CN2C(=O)[C@@H](NC(=O)C2(F)CC2)C(C)(C)C)c(OCCOc2ccc(CN3CCN(c4cc(-c5ccccc5O)nnc4N)CC3)cc2)c1` [Compound I-7], in test [1], the DC50 was 16 nM and the Dmax is 97%. In test [2], the DC50 is 12 nM and the Dmax is 98%.

In test [1], `Cc1ncsc1-c1ccc(CNC(=O)[C@@H]2C[C@@H](O)CN2C(=O)[C@@H](NC(=O)C2(F)CC2)C(C)(C)C)c(OCCc2ccc(CN3CCN(c4cc(-c5ccccc5O)nnc4N)CC3)cc2)c1` [Compound I-2] registered a DC50 of 117 nM and a Dmax of 93%. Moreover, in test [2], the DC50 turned out to be 67 nM and the Dmax amounted to 91%.

In test [1], `Cc1ncsc1-c1ccc(CNC(=O)[C@@H]2C[C@@H](O)CN2C(=O)[C@@H](NC(=O)C2(F)CC2)C(C)(C)C)c(OCCCc2ccc(CN3CCN(c4cc(-c5ccccc5O)nnc4N)CC3)cc2)c1` [Compound I-14] came in with a DC50 of 25 nM and a Dmax of 92%. In test [2], this compound returned a DC50 of 58 nM and a Dmax of 90%.

`Cc1ncsc1-c1ccc(CNC(=O)[C@@H]2C[C@@H](O)CN2C(=O)[C@@H](NC(=O)C2(F)CC2)C(C)(C)C)c(OCCc2ccc(OCCN3CCN(c4cc(-c5ccccc5O)nnc4N)CC3)cc2)c1` [Compound I-10]: in test [1], the DC50 is 26 nM and the Dmax amounted to 99%. Besides, in test [2], half-maximal degradation (DC50) was put at 41 nM and the Dmax amounted to 99%.

Turning to `Cc1ncsc1-c1ccc(CNC(=O)[C@@H]2C[C@@H](O)CN2C(=O)[C@@H](NC(=O)C2(F)CC2)C(C)(C)C)c(OCCCOc2ccc(CN3CCN(c4cc(-c5ccccc5O)nnc4N)CC3)cc2)c1` [Compound I-11], the DC50 in test [1] came out at 16 nM; in test [2] it was 26 nM. The Dmax in test [1] was 100%; in test [2], 99%.
